Measurements taken from US20230011869A1 (Hoffmann-La Roche Inc., priority 2018, published 2023).
Where a name gives a salt, the structure may show the parent alone.

Each molecule was assayed on Acinetobacter baumannii ATCC17961 (assay: Antimicrobial susceptibility testing: 90% growth inhibitory concentration (IC90) determination, Iso-Sensitest broth). Details: 90% growth inhibitory concentration, Acinetobacter baumannii ATCC17961, Iso-Sensitest broth, OD 600 nm over 16 h; read-out: ATCC17961 IC90.
Assay type: cell-based
How it was run: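 Twofold serial dilutions (e.g. 50 to 0.097 μM final) in Iso-Sensitest broth, inoculum 5×10^(5) CFU/ml, incubated at 35±2° C. OD600 read every 20 minutes over 16 h; IC90 derived from growth inhibition during logarithmic phase.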
Cc1cc(Nc2nccn3c(-c4ccc(OCC#N)c(F)c4Cl)cnc23)ccc1C(=O)N1CCN(C(=O)[C@@H]2C[C@@H](O)CN2)CC1 [Example 251, 2-[3-chloro-2-fluoro-4-[8-[4-[4-[(2S,4R)-4-hydroxypyrrolidine-2-carbonyl]piperazine-1-carbonyl]-3-methylanilino]imidazo[1,2-a]pyrazin-3-yl]phenoxy]acetonitrile] showed an IC90 of 80 nM.

Same assay, conditions: Acinetobacter baumannii, ATCC17961, 16 h, 90% growth inhibitory concentration, Acinetobacter baumannii ATCC17961, Iso-Sensitest broth, OD 600 nm over 16 h; read-out: ATCC17961 IC90
Cc1cc(Nc2nccn3c(-c4ccc(OCC#N)c(F)c4Cl)cnc23)ccc1C(=O)N1CCC(C(=O)N2CCN[C@H](CO)C2)CC1 [Example 538, 2-[3-chloro-2-fluoro-4-[8-[4-[4-[(3S)-3-(hydroxymethyl)piperazine-1-carbonyl]piperidine-1-carbonyl]-3-methylanilino]imidazo[1,2-a]pyrazin-3-yl]phenoxy]acetonitrile; for-mic acid] was tested, and the IC90 was 88 nM.
For Cc1cc(Nc2nccn3c(-c4ccc(OCC#N)c(F)c4F)cnc23)ccc1C(=O)N1CCN(C(=O)CN(C)C)CC1 [Example 545, 2-[4-[8-[4-[4-[2-(dimethylamino)acetyl]piper-azine-1-carbonyl]-3-methylanilino]imidazo[1,2-a]pyrazin-3-yl]-2,3-difluorophenoxy]acetonitrile; formic acid], the IC90 was 38 nM.
Work on COc1ccc(-c2cnc3c(Nc4ccc(C(=O)N5CCN(C(=O)[C@]67CNCC[C@H]6OC(C)(C)O7)CC5)c(C)c4)nccn23)c(F)c1F (stereo in doubt) [Example 577, rel-(4-(4-((3-(2,3-difluoro-4-methoxyphenyl)imidazo[1,2-a]pyrazin-8-yl)amino)-2-methylbenzoyl)piperazin-1-yl)((3aR,7aS)-2,2-dimethyltetrahydro-[1,3]dioxolo[4,5-c]pyridin-3a(4H)-yl)methanone] yielded an IC90 of 330 nM.
Cc1cc(Nc2nccn3c(-c4ccc(OCC#N)c(F)c4Cl)cnc23)ccc1C(=O)N1CCN(C(=O)[C@H]2CCNC[C@H]2O)CC1 [Example 222, 2-[3-chloro-2-fluoro-4-[8-[4-[4-[(3S,4S)-3-hydroxypiperidine-4-carbonyl]piperazine-1-carbonyl]-3-methyl-anilino]imidazo[1,2-a]pyrazin-3-yl]phenoxy] acetonitrile formate] showed an IC90 of 38 nM.
COc1ccc(-c2cnc3c(Nc4ccc(C(=O)N5CCN(C(=O)[C@@H]6C[C@@](OC)(C(F)(F)F)CN6)CC5)c(C)c4)nccn23)c(F)c1F [Example 583, (4-(4-((3-(2,3-difluoro-4-methoxyphenyl)imidazo[1,2-a]pyrazin-8-yl)amino)-2-methylbenzoyl)piperazin-1-yl)((2S,4S)-4-methoxy-4-(trifluoromethyl)pyrrolidin-2-yl)methanone hydrochloride] gave an IC90 of 460 nM.
With Cc1cc(Nc2nccn3c(-c4ccc(OCC#N)c(F)c4F)cnc23)ccc1C(=O)N1CCN(C(=O)[C@H]2CCNC[C@@H]2O)CC1 [Example 191, 2-[2,3-difluoro-4-[8-[4-[4-[(3R,4S)-3-hydroxypiperidine-4-carbonyl]piperazine-1-carbonyl]-3-methyl-anilino]imidazo[1,2-a]pyrazin-3-yl]phenoxy] acetonitrile formate] the IC90 was 73 nM.
In the case of COc1ccc(-c2cnc3c(Nc4cc(F)c(C(=O)N5CCN(C(=O)[C@@H]6C[C@@H](O)CN6)CC5)cc4F)nccn23)c(F)c1F [Example 244, (4-(4-((3-(2,3-difluoro-4-methoxyphenyl)imidazo[1,2-a]pyrazin-8-yl)amino)-2,5-difluorobenzoyl)piperazin-1-yl)((2S,4R)-4-hydroxypyrrolidin-2-yl)methanone], the IC90 is reported as 2730 nM.
With COc1ccc(-c2cnc3c(Nc4ccc(C(=O)N5CCN(C(=O)[C@]6(O)C[C@@H](O)[C@@H](O)[C@H](O)C6)CC5)c(C)c4)nccn23)c(F)c1F [Example 295, [4-[[3-(2,3-difluoro-4-methoxyphenyl)imidazo[1,2-a]pyrazin-8-yl]amino]-2-methylphenyl]-[4-[(3R,5R)-1,3,4,5-tetrahydroxycyclohexanecar-bonyl]piperazin-1-yl]methanone] the IC90 was 171 nM.
With CCc1cc(Nc2nccn3c(-c4ccc(OC(F)F)c(F)c4F)cnc23)ccc1C(=O)N1CCC(C(=O)N2C[C@H]3C[C@@H](C2)N3)CC1 [Example 589, (4-(3,6-diazabicyclo[3.1.1]heptane-3-carbonyl)piperidin-1-yl)(4-((3-(4-(difluoromethoxy)-2,3-difluorophenyl)imidazo[1,2-a]pyrazin-8-yl)amino)-2-ethylphenyl)methanone formate] the IC90 was 59 nM.
Molecule COc1ccc(-c2cnc3c(Nc4cc(C)c(C(=O)N5CCN(C(=O)[C@@H]6C[C@@H](O)CN6)CC5)c(Cl)c4)nccn23)c(F)c1F [Example 575, (4-(2-chloro-4-((3-(2,3-difluoro-4-methoxyphenyl)imidazo[1,2-a]pyrazin-8-yl)amino)-6-methylbenzoyl)piperazin-1-yl)((2S,4R)-4-hydroxypyrrolidin-2-yl)methanone dihydrochloride] has an IC90 of 583 nM.
COc1ccc(-c2cnc3c(Nc4ccc(C(=O)N5CCN(S(=O)(=O)[C@@H]6CCNC6)CC5)c(C)c4)nccn23)c(F)c1F [Example 579, (R)-(4-((3-(2,3-difluoro-4-methoxyphenyl)imidazo[1,2-a]pyrazin-8-yl)amino)-2-methylphenyl)(4-(pyrrolidin-3-ylsulfonyl)piperazin-1-yl)methanone] showed an IC90 of 258 nM.
Molecule Cc1cc(Nc2nccn3c(-c4ccc(OCC#N)c(F)c4F)cnc23)ccc1C(=O)N1CCN(C(=O)[C@@H]2C[C@@](C)(O)CN2)CC1 [Example 231, 2-[2,3-difluoro-4-[8-[4-[4-[(2S,4R)-4-hydroxy-4-methyl-pyrrolidine-2-carbonyl]piperazine-1-carbonyl]-3-methyl-anilino]imidazo[1,2-a]pyrazin-3-yl]phenoxy] acetonitrile formate] has an IC90 of 53 nM.
COc1ccc(-c2cnc3c(Nc4ccc(C(=O)N5CCN(C(=O)C6(O)CCNCC6)CC5)c(C)c4)nccn23)c(F)c1F [Example 204, [4-[[3-(2,3-difluoro-4-methoxy-phenyl)imidazo[1,2-a]pyrazin-8-yl]amino]-2-methyl-phenyl]-[4-(4-hydroxypiperidine-4-carbonyl)piperazin-1-yl]methanone hydrochloride] showed an IC90 of 46 nM.
In the case of CC[C@@]1(O)CN[C@H](C(=O)N2CCN(C(=O)c3ccc(Nc4nccn5c(-c6ccc(OCC#N)c(F)c6F)cnc45)cc3C)CC2)C1 [Example 229, 2-[4-[8-[4-[4-[(2S,4S)-4-ethyl-4-hydroxy-pyrrolidine-2-carbonyl]piperazine-1-carbonyl]-3-methyl-anilino]imidazo[1,2-a]pyrazin-3-yl]-2,3-difluoro-phenoxy]acetonitrile formate], the IC90 is reported as 44 nM.
COc1ccc(-c2cnc3c(Nc4ccc(C(=O)N5CCC(C(=O)NCC(O)Cn6cccn6)CC5)c(C)c4)nccn23)c(F)c1F (stereo not shown) [Example 570, 1-(4-((3-(2,3-difluoro-4-methoxyphenyl)imidazo[1,2-a]pyrazin-8-yl)amino)-2-methylbenzoyl)-N-(2-hydroxy-3-(1H-pyrazol-1-yl)propyl)piperidine-4-carboxamide] showed an IC90 of 245 nM.
Work on Cc1cc(Nc2nccn3c(-c4ccc(OCC#N)c(F)c4Cl)cnc23)ccc1C(=O)N1CCN(C(=O)[C@@H]2C[C@@H](O)CN2)CC1 [Example 211, 2-[3-chloro-2-fluoro-4-[8-[4-[4-[(2S,4R)-4-hydroxypyrrolidine-2-carbonyl]piperazine-1-carbonyl]-3-methyl-anilino]imidazo[1,2-a]pyrazin-3-yl]phenoxy] acetonitrile formate] yielded an IC90 of 42 nM.

Same assay, conditions: Acinetobacter baumannii, ATCC17961, 16 h, read-out: ATCC17961 IC90
For CCc1cc(Nc2nccn3c(-c4ccc(OC)c(F)c4F)cnc23)ccc1C(=O)N1CC(OCCN)C1 [Example 585, (3-(2-aminoethoxy)azetidin-1-yl)(4-((3-(2,3-difluoro-4-methoxyphenyl)imidazo[1,2-a]pyrazin-8-yl)amino)-2-ethylphenyl)methanone formate], the IC90 was 94 nM.
For COc1cc(Nc2nccn3c(-c4ccc(OC)c(F)c4F)cnc23)ccc1C(=O)N1CCN(C(=O)[C@H]2C[C@H](O)CN2)CC1 (stereo in doubt) [Example 586, (4-(4-((3-(2,3-difluoro-4-methoxyphenyl)imidazo[1,2-a]pyrazin-8-yl)amino)-2-methoxybenzoyl)piperazin-1-yl)((2R,4S)-4-hydroxypyrrolidin-2-yl)methanone formate], the IC90 was 312 nM.
COc1ccc(-c2cnc3c(Nc4ccc(C(=O)N5CCN(C(=O)[C@@H]6C[C@](C)(O)CN6)CC5)c(C)c4)nccn23)c(F)c1F [Example 455, [4-[[3-(2,3-difluoro-4-methoxyphenyl)imidazo[1,2-a]pyrazin-8-yl]amino]-2-methylphenyl]-[4-[(2S,4S)-4-hydroxy-4-methylpyrrolidine-2-carbonyl]piperazin-1-yl]methanone; formic acid] showed an IC90 of 66 nM.
Molecule CCc1cc(Nc2nccn3c(-c4ccc(OC(F)F)c(F)c4F)cnc23)ccc1C(=O)N1CCC(C(=O)N2C[C@@H]3C[C@H]2CN3)CC1 [Example 592, (4-((1S,4S)-2,5-diazabicyclo[2.2.1]heptane-2-carbonyl)piperidin-1-yl)(4-((3-(4-(difluoromethoxy)-2,3-difluorophenyl)imidazo[1,2-a]pyrazin-8-yl)amino)-2-ethylphenyl)methanone 2,2,2-trifluoroacetate formate] has an IC90 of 38 nM.
COc1ccc(-c2cnc3c(Nc4ccc(C(=O)N5CCC(C(=O)N6CCN[C@@H]([C@@H](C)O)C6)CC5)c(C)c4)nccn23)c(F)c1F [Example 292, [4-[[3-(2,3-difluoro-4-methoxyphenyl)imidazo[1,2-a]pyrazin-8-yl]amino]-2-methylphenyl]-[4-[(3R)-3-[(1R)-1-hydroxyethyl]piperazine-1-carbonyl]piperidin-1-yl]methanone; hydrochloride] showed an IC90 of 123 nM.
